Assay results reported in US20260027380A1, “TECHNIQUES FOR MAGNETIC NANOCLUSTER-BASED COMBINATION THERAPY” (William Marsh Rice University, priority 2022, published 2026).

System: MC-38 cells
Assay: Mitochondrial membrane potential (JC-1 staining)
Format: cell-based, murine
Conditions: without AMF
Text: JC-1 dye was used to examine the effect of heat and free radical generation by IONC-AAPH on mitochondria. JC-1 dye is an indicator of mitochondrial membrane potential (MMP). In healthy cells with high MMP, JC-1 accumulates in the mitochondria and forms J-aggregates, which emit red fluorescence. In contrast, apoptotic cells with low MMP, JC-1 diffuses in the cytoplasm and remains as J-monomers, which give green fluorescence. A decrease in J-aggregates to J-monomers ratio indicates MMP loss (i.e., mitochondrial depolarizations). […] The J-aggregates to J-monomers ratios quantified using flow cytometry confirmed the significant MMP loss due to heat and free radicals, as illustrated in FIGS. 9 (depicting results of flow cytometry analysis of mitochondrial membrane potential of MC-38 cells 4 h after treatment by JC-1 staining) and 10 (depicting quantification of the J-aggregate to J-monomer ratio using the mean fluorescence detected by flow cytometry in FIG. 9).
Determination of mitochondrial health: The mitochondrial membrane potential of MC-38 cells was determined with JC-1 staining assay. […] After staining, the cells were imaged with a confocal microscope (Nikon A1-Rsi confocal) or analyzed on a flow cytometer (BD Accuri C6 Plus). The ratio of J-aggregates to J-monomers was calculated using the red and green fluorescence intensity measured by flow cytometry.

Structure (SMILES): CC(C)(N=NC(C)(C)C(=N)N)C(=N)N.Cl.Cl [AAPH, 2,2′-azobis(2-amidinopropane) dihydrochloride]
- JC-1 state (mitochondrial membrane potential): J-aggregates were formed
